Assay results taken from patent US20060183773A1, “Uses of methylphenidate derivatives” (priority 2005, published 2006).

Key:
IkB-β = test: Custom AntibodyArray, TRiPS cells: IkB-β; format: cell-based, human; conditions: 15 μg/ml, 30 minutes
Protocol: (§1) Day 18 TRiPS cells, 1×10^6, were incubated for 30 minutes at 37° C., either with nothing added (“Nil”), with 1 μl CD3/CD28 Dynabeads (Dynal, Oslo, Norway) (“CD3/CD28 beads”) per 100,000 cells, or with CD3/CD28 beads and 15 μg/ml of the compound of formula II (Cpd II). After the incubation, the cells were lysed in Cell-Lytic Mammalian Cell Extraction Reagent (Sigma). After centrifugation to pellet cellular debris, the supernatants (cell extracts) were obtained.
(§2) The cell extracts (supernatants) were then analyzed using a Custom AntibodyArray™ manufactured by Hypromatrix Inc., Worcester, Mass., following the manufacturer's instructions. The Custom AntibodyArray™ is a nylon membrane blotted with antibodies to the proteins listed below. Briefly, the cell extracts were incubated with duplicate Custom AntibodyArray™'s for 2 hours at room temperature with slow shaking, followed by three washes with Tris buffer (150 mM NaCl, 25 mM Tris, 0.05% Tween-20, pH 7.5). HRP-labeled antibodies specific for phosphorylated-tyrosine, phosphorylated-serine and phosphorylated-threonine in Tris buffer were added, and the arrays incubated for 2 hours. After three more washes with Tris buffer, a peroxidase-reactive luminescent substrate was added. The arrays were visualized by exposure to X-ray film. Densitometry of the X-ray films was measured by scanning and computer analysis.

MEK1 = test: Custom AntibodyArray, TRiPS cells: MEK1; format: cell-based, human; conditions: 15 μg/ml, 30 minutes
Protocol: as §1, §2

IkB-r = test: Custom AntibodyArray, TRiPS cells: IkB-r; format: cell-based, human; conditions: 15 μg/ml, 30 minutes
Protocol: as §1, §2

RAP2 = test: Custom AntibodyArray, TRiPS cells: RAP2; format: cell-based, human; conditions: 15 μg/ml, 30 minutes
Protocol: as §1, §2

TCR-positive cells = test: Annexin staining of TCR-positive PBL, flow cytometry (cell death); format: cell-based, human
Protocol: (§3) After this incubation, PHA was added to give a final concentration of 5 μg/ml, and the cells were incubated for an additional 72 hours at 37° C., 5% CO2. All cultures were performed in triplicate. Cells were then removed by centrifugation at 1000 rpm for 10 minutes.
The cells were further analyzed by flow cytometry. Annexin was used to determine populations of dead or dying cells. Anti-CD69 antibody was used to establish the level of cellular activation. Antibody to T-cell receptor αβ (TCR) was also used. Recombinant Annexin 5 (PE and FITC conjugates) and the antibodies were all purchase from Caltag (Burlingham, Calif.) and used following the manufacturer's recommendations.

[1] = test system: MC/9 murine fibroblast cell line; test: MC/9 cell proliferation, Promega cell titer assay; format: cell-based; conditions: 72 hours
Protocol: Cells of the MC/9 murine […] cell line (obtained from ATCC, catalog no. CRL-8305) were placed into the wells of a 96-well tissue culture plate at 25,000 cells/well. The culture medium was Delbecco's Modified Eagle's Medium (DMEM) (obtained from Cambrex) containing 10% fetal calf serum (FCS) (obtained from ATCC). Nil control wells contained no additives. The remaining wells contained either 25 ng/ml murine nerve growth factor (NGF) (obtained from Upstate Biotechnology, Lake Placid, NY) or 25 ng/ml NGF and 5% TSTIM (a culture supplement prepared from rats and containing concanavalin A which was obtained from BD Biosciences). […] After 72 hours of culture at 37° C. and 5% CO2, cell proliferation was evaluated by the Promega cell titer assay as described in Example 1.

IL-8 = IL-8 release by PHA-stimulated PBL, ELISA; format: cell-based, human; conditions: PBL donor GR-192; 2 μg/ml PHA, 96 h; Cpd II 15 μg/ml, Dex 10 μM; FIG. 8
Protocol: Whole blood was drawn from GR-192, a normal human volunteer, and processed as described in Example 1 to give heat-inactivated serum and PBL. […] After this incubation, PHA was added to give a final concentration of 2 μg/ml, and the cells were incubated for an additional 96 hours at 37° C., 5% CO2. All cultures were performed in triplicate. Cells were then removed by centrifugation at 1000 rpm for 10 minutes, and the culture medium collected.
Release of IL-8 into the culture medium was measured by ELISA. To perform the ELISA, matched pairs of antibodies against human IL-8 were purchased from Pierce Biotechnology and Biosource, respectively. ELISA strip well plates were coated with 2 μg/ml of antibody to IL-8 (in phosphate-buffered saline (PBS)) overnight at room temperature. The plates were then blocked using a 4% BSA solution in PBS for one hour, followed by the addition of 50 μl of experimental culture medium per well in duplicate. The plates were incubated at room temperature for one hour and then washed using 50 mM Tris pH 8.0 with 0.1% Tween 20. Then, solutions of 100 ng/ml biotinylated second antibody to IL-8 were made in blocking buffer, and 100 μl were added per well. The plates were incubated for 1 hour and washed again. […] OD was determined using microplate reader with a 450 nm filter.

MEKK1 = test: Custom AntibodyArray, TRiPS cells: MEKK1; format: cell-based, human; conditions: 15 μg/ml, 30 minutes
Protocol: as §1, §2

JNK1 = test: Custom AntibodyArray, TRiPS cells: JNK1; format: cell-based, human; conditions: 15 μg/ml, 30 minutes
Protocol: as §1, §2

STAT2 = test: Custom AntibodyArray, TRiPS cells: STAT2; format: cell-based, human; conditions: 15 μg/ml, 30 minutes
Protocol: as §1, §2

JNK2 = test: Custom AntibodyArray, TRiPS cells: JNK2; format: cell-based, human; conditions: 15 μg/ml, 30 minutes
Protocol: as §1, §2

JAK2 = test: Custom AntibodyArray, TRiPS cells: JAK2; format: cell-based, human; conditions: 15 μg/ml, 30 minutes
Protocol: as §1, §2

TNFα = TNFα release by PBL, ELISA; format: cell-based, human; conditions: donor GR191; 5 μg/ml PHA, 72 h; Cpd II 15 and 50 μg/ml, Dex 10 μM; FIG. 7
Protocol: as §3
The TNFα ELISA was performed as described in Example 2 using matched pair antibodies from Pierce Endogen (2 μg/ml for the coating antibody and 250 ng/ml for the second antibody).

VAV = test: Custom AntibodyArray, TRiPS cells: VAV; format: cell-based, human; conditions: 15 μg/ml, 30 minutes
Protocol: as §1, §2

IkB-ε = test: Custom AntibodyArray, TRiPS cells: IkB-ε; format: cell-based, human; conditions: 15 μg/ml, 30 minutes
Protocol: as §1, §2

RAP1 = test: Custom AntibodyArray, TRiPS cells: RAP1; format: cell-based, human; conditions: 15 μg/ml, 30 minutes
Protocol: as §1, §2

Which “Effect of Cpd II on the protein in CD3/CD28 stimulated TRiPS cells” value (from here on “Effect of Cpd II on the protein”) (IkB-β) does the source give for `COC(=O)C(c1ccc(-c2ccccc2)cc1)C1CCCCN1` (stereo not drawn) [Cpd II] here?
Its value is “Decreased level back to basal levels (Nil control)”.

And the “Effect of Cpd II on the protein” value (MEK1)?
Its value is “Decreased level to below basal levels (Nil control)”.

And the “Effect of Cpd II on the protein” value (IkB-r)?
The value was “Decreased level back to basal levels (Nil control)”.

What about the “Effect of Cpd II on the protein” value (RAP2) of the same compound?
The value was “Activated”.

And the “Annexin staining of TCR-positive cells” value (TCR-positive cells; 15 μg/ml, no PHA, background 7.3%)?
Its value is 23%.

What about the “Annexin staining of TCR-positive cells” value (TCR-positive cells; 50 μg/ml, no PHA, background 7.3%) of the same compound?
The value was 45%.

And the “Annexin staining of TCR-positive cells” value (TCR-positive cells; PHA 5 μg/ml plus 15 μg/ml, PHA alone 67%)?
Its value is 62%.

And the “Annexin staining of TCR-positive cells” value (TCR-positive cells; PHA 5 μg/ml plus 50 μg/ml, PHA alone 67%)?
Its value is 87%.

And the “Mean OD 530 nm” value ([1]; MC/9, NGF 25 ng/ml + 1 μg/ml, NGF + water 0.101)?
Its value is 0.117 ± 0.015.

And the “Mean OD 530 nm” value ([1]; MC/9, NGF 25 ng/ml + 5 μg/ml, NGF + water 0.101)?
Its value is 0.108 ± 0.012.

What about the “Mean OD 530 nm” value ([1]; MC/9, NGF 25 ng/ml + 15 μg/ml, NGF + water 0.101) of the same compound?
The value was 0.049 ± 0.016.

What about the “Mean OD 530 nm” value ([1]; MC/9, NGF + TSTIM + 1 μg/ml, NGF + TSTIM + water 0.365) of the same compound?
The value was 0.428 ± 0.027.

What about the “Mean OD 530 nm” value ([1]; MC/9, NGF + TSTIM + 5 μg/ml, NGF + TSTIM + water 0.365) of the same compound?
The value was 0.373 ± 0.016.

What about the “Mean OD 530 nm” value ([1]; MC/9, NGF + TSTIM + 15 μg/ml, NGF + TSTIM + water 0.365) of the same compound?
The value was 0.326 ± 0.024.

What about the “IL-8 release induced by PHA” value (IL-8) of the same compound?
The value was “significantly inhibited IL-8 release induced by PHA”.

What about the “Effect of Cpd II on the protein” value (MEKK1) of the same compound?
The value was “Decreased level back to basal levels (Nil control)”.

And the “Effect of Cpd II on the protein” value (JNK1)?
Its value is “Decreased level back to basal levels (Nil control)”.

And the “Effect of Cpd II on the protein” value (STAT2)?
The value was “No effect”.

And the “Effect of Cpd II on the protein” value (JNK2)?
Its value is “Decreased level back to basal levels (Nil control)”.

What about the “Effect of Cpd II on the protein” value (JAK2) of the same compound?
Its value is “Activated”.

What about the “release of TNFα from PHA-stimulated PBL” value (TNFα) of the same compound?
Its value is “significantly inhibited the release of TNFα”.

And the “Effect of Cpd II on the protein” value (VAV)?
The value was “No effect”.

What about the “Effect of Cpd II on the protein” value (IkB-ε) of the same compound?
The value was “Slightly decreased the level”.

What about the “Effect of Cpd II on the protein” value (RAP1) of the same compound?
The value was “Activated”.
